Reference: patent publication US9695155B2, “Herbicidal substituted pyrimidinyloxy benzene compounds” (E. I. DU PONT DE NEMOURS AND COMPANY, priority 2013, dated 2017)

Experiments:
ragweed = test: Test E preemergence; format: in vivo, Ambrosia elatior; conditions: for Ragweed plant response rating: scale 0 to 100 (0 no effect, 100 complete control)
Text: (§1) Seeds of plant species selected from corn (Zea mays), soybean (Glycine max), velvetleaf (Abutilon theophrasti), lambsquarters (Chenopodium album), wild poinsettia (Euphorbia heterophylla), palmer pigweed (Amaranthus palmeri), waterhemp (common waterhemp, Amaranthus rudis), surinam grass (Brachiaria decumbens), large (Lg) crabgrass (Digitaria sanguinalis), Brazilian crabgrass (Digitaria horizontalis), fall panicum (Panicum dichotomiflorum), giant foxtail (Setaria faberii), green foxtail (Setaria viridis), goosegrass (Eleusine indica), johnsongrass (Sorghum halepense), ragweed (common ragweed, Ambrosia elatior), barnyardgrass (Echinochloa crus-galli), sandbur (southern sandbur, Cenchrus echinatus), arrowleaf sida (Sida rhombifolia), Italian ryegrass (Lolium multiflorum), dayflower (Virginia (VA) dayflower, Commelina virginica), field bindweed (Convolvulus arvensis), morningglory (Ipomoea coccinea), nightshade (eastern black nightshade, Solanum ptycanthum), kochia (Kochia scoparia), yellow nutsedge (Cyperus esculentus), cocklebur (common cocklebur, Xanthium strumarium), smartweed (ladysthumb smartweed, and hairy beggarticks (Bidens pilosa), were planted into a silt loam soil and treated preemergence with test chemicals formulated in a non-phytotoxic solvent mixture which included a surfactant.
(§2) At the same time, plants from these crop and weed species and also horseweed (Canada horseweed, Conyza canadensis), waterhemp_RES1, (ALS & Triazine resistant common waterhemp, Amaranthus rudis), and waterhemp_RES2, (ALS & HPPD resistant common waterhemp, Amaranthus rudis) were planted in pots containing Redi-Earth® planting medium (Scotts Company, 14111 Scottslawn Road, Marysville, Ohio 43041) comprising spaghnum peat moss, vermiculite, wetting agent and starter nutrients were treated with postemergence applications of test chemicals formulated in the same manner. Plants ranged in height from 2 to 18 cm for postemergence treatments (1- to 4-leaf stage). Treated plants and controls were maintained in a greenhouse for 14 to 21 days, after which time all species were compared to controls and visually evaluated. Plant response ratings, summarized in Table E, are based on a scale of 0 to 100 where 0 is no effect and 100 is complete control. A dash (-) response means no test result.

fall panicum = test: Test E preemergence; format: in vivo, Panicum dichotomiflorum; conditions: for Panicum, Fall plant response rating: scale 0 to 100 (0 no effect, 100 complete control); for Plant response rating, Panicum, Fall: scale 0 to 100, 0 no effect, 100 complete control
Text: as §1, §2

rice = test: Test C flooded paddy test; format: in vivo, Oryza sativa; conditions: Flood, scale 0 to 100 (0 no effect, 100 complete control), 13 to 15 days
Method in brief: (§3)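 In-water treatment: compound dosed into 3 cm flood over soil, water level unchanged throughout. Controls run alongside; visual assessment at day 13–15.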

sandbur = test: Test E preemergence; format: in vivo, Cenchrus echinatus; conditions: for Sandbur plant response rating: scale 0 to 100 (0 no effect, 100 complete control)
Text: as §1, §2

green foxtail = test: Test E preemergence; format: in vivo, Setaria viridis; conditions: for Foxtail, Green plant response rating: scale 0 to 100 (0 no effect, 100 complete control)
Text: as §1, §2

wild poinsettia = test: Test E preemergence; format: in vivo, Euphorbia heterophylla; conditions: for Poinsettia, Wild plant response rating: scale 0 to 100 (0 no effect, 100 complete control)
Text: as §1, §2

yellow nutsedge = test: Test E preemergence; format: in vivo, Cyperus esculentus; conditions: for Nutsedge, Yellow plant response rating: scale 0 to 100 (0 no effect, 100 complete control)
Text: as §1, §2

soybean = test: Test E preemergence; format: in vivo, Glycine max; conditions: for Soybean plant response rating: scale 0 to 100 (0 no effect, 100 complete control)
Text: as §1, §2

dayflower = test: Test E preemergence; format: in vivo, Commelina virginica; conditions: for Dayflower, VA plant response rating: scale 0 to 100 (0 no effect, 100 complete control)
Text: as §1, §2

ducksalad = test: Test C flooded paddy test; format: in vivo, Heteranthera limosa; conditions: Flood, scale 0 to 100 (0 no effect, 100 complete control), 13 to 15 days
Method in brief: as §3

palmer pigweed = test: Test E preemergence; format: in vivo, Amaranthus palmeri; conditions: for Pigweed, Palmer plant response rating: scale 0 to 100 (0 no effect, 100 complete control)
Text: as §1, §2

[1] = 125 g ai/ha, scale 0 to 100, 0 no effect, 100 complete control
[2] = 250 g ai/ha, scale 0 to 100, 0 no effect, 100 complete control
[3] = 8 g ai/ha, scale 0 to 100, 0 is no effect, 100 is complete control

FC(F)(F)c1cnn(-c2ccccc2Oc2ncc(Br)cn2)c1 [Compound 18, 5-bromo-2-[2-[4-(trifluoromethyl)-1H-pyrazol-1-yl]phenoxy]pyrimidine]
Ragweed plant response rating (ragweed; 16 g ai/ha): 0 | Ragweed plant response rating (ragweed; 31 g ai/ha): 0 | Ragweed plant response rating (ragweed; 62 g ai/ha): 0 | Plant response rating, Ragweed (ragweed; [1]): 0 | Plant response rating, Ragweed (ragweed; [2]): 0 | Panicum, Fall plant response rating (fall panicum; 16 g ai/ha): 0 | Panicum, Fall plant response rating (fall panicum; 31 g ai/ha): 50 | Panicum, Fall plant response rating (fall panicum; 62 g ai/ha): 70 | Plant response rating, Panicum, Fall (fall panicum; 125 g ai/ha): 100 | Plant response rating, Panicum, Fall (fall panicum; 250 g ai/ha): 100 | Plant response rating, Rice (rice; 31 g ai/ha): 0 | Plant response rating, Rice (rice; 62 g ai/ha): 0 | Plant response rating, Rice (rice; 125 g ai/ha): 0 | Plant response rating, Rice (rice; 250 g ai/ha): 10 | Sandbur plant response rating (sandbur; 16 g ai/ha): 0 | Sandbur plant response rating (sandbur; 31 g ai/ha): 0 | Sandbur plant response rating (sandbur; 62 g ai/ha): 0 | Plant response rating, Sandbur (sandbur; [1]): 5 | Plant response rating, Sandbur (sandbur; [2]): 75 | Foxtail, Green plant response rating (green foxtail; 16 g ai/ha): 0 | Foxtail, Green plant response rating (green foxtail; 31 g ai/ha): 0 | Foxtail, Green plant response rating (green foxtail; 62 g ai/ha): 65 | Plant response rating, Foxtail, Green (green foxtail; [1]): 100 | Plant response rating, Foxtail, Green (green foxtail; [2]): 100 | Poinsettia, Wild plant response rating (wild poinsettia; 16 g ai/ha): 0 | Poinsettia, Wild plant response rating (wild poinsettia; 31 g ai/ha): 0 | Poinsettia, Wild plant response rating (wild poinsettia; 62 g ai/ha): 0 | Plant response rating, Poinsettia, Wild (wild poinsettia; [1]): 0 | Plant response rating, Poinsettia, Wild (wild poinsettia; [2]): 50 | Nutsedge, Yellow plant response rating (yellow nutsedge; 16 g ai/ha): 0 | Nutsedge, Yellow plant response rating (yellow nutsedge; 31 g ai/ha): 0 | Nutsedge, Yellow plant response rating (yellow nutsedge; 62 g ai/ha): 0 | Plant response rating, Nutsedge, Yellow (yellow nutsedge; [1]): 0 | Plant response rating, Nutsedge, Yellow (yellow nutsedge; [2]): 10 | Soybean plant response rating (soybean; 16 g ai/ha): 0 | Soybean plant response rating (soybean; 31 g ai/ha): 0 | Soybean plant response rating (soybean; 62 g ai/ha): 60 | Plant response rating, Soybean (soybean; [1]): 90 | Plant response rating, Soybean (soybean; [2]): 90 | Dayflower, VA plant response rating (dayflower; 16 g ai/ha): 0 | Dayflower, VA plant response rating (dayflower; 31 g ai/ha): 0 | Dayflower, VA plant response rating (dayflower; 62 g ai/ha): 35 | Plant response rating, Dayflower, VA (dayflower; [1]): 95 | Plant response rating, Dayflower, VA (dayflower; [2]): 98 | Plant response rating, Ducksalad (ducksalad; 31 g ai/ha): 80 | Plant response rating, Ducksalad (ducksalad; 62 g ai/ha): 80 | Plant response rating, Ducksalad (ducksalad; 125 g ai/ha): 85 | Plant response rating, Ducksalad (ducksalad; 250 g ai/ha): 90

Clc1cnc(Oc2ccccc2-n2cc(Br)cn2)nc1 [Compound 7, 2-[2-(4-bromo-1H-pyrazol-1-yl)phenoxy]-5-chloropyrimidine]
Plant response rating, Pigweed, Palmer (palmer pigweed; [3]): 0 | Pigweed, Palmer plant response rating (palmer pigweed; 16 g ai/ha): 95 | Pigweed, Palmer plant response rating (palmer pigweed; 31 g ai/ha): 85 | Pigweed, Palmer plant response rating (palmer pigweed; 62 g ai/ha): 100 | Plant response rating, Pigweed, Palmer (palmer pigweed; [1]): 100 | Plant response rating, Ragweed (ragweed; [3]): 0 | Ragweed plant response rating (ragweed; 16 g ai/ha): 0 | Ragweed plant response rating (ragweed; 31 g ai/ha): 0 | Ragweed plant response rating (ragweed; 62 g ai/ha): 0 | Plant response rating, Ragweed (ragweed; [1]): 0 | Plant response rating, Sandbur (sandbur; [3]): 0 | Sandbur plant response rating (sandbur; 16 g ai/ha): 0 | Sandbur plant response rating (sandbur; 31 g ai/ha): 0 | Sandbur plant response rating (sandbur; 62 g ai/ha): 0 | Plant response rating, Sandbur (sandbur; [1]): 35 | Plant response rating, Foxtail, Green (green foxtail; [3]): 0 | Foxtail, Green plant response rating (green foxtail; 16 g ai/ha): 0 | Foxtail, Green plant response rating (green foxtail; 31 g ai/ha): 30 | Foxtail, Green plant response rating (green foxtail; 62 g ai/ha): 35 | Plant response rating, Foxtail, Green (green foxtail; [1]): 75 | Plant response rating, Poinsettia, Wild (wild poinsettia; [3]): 0 | Poinsettia, Wild plant response rating (wild poinsettia; 16 g ai/ha): 0 | Poinsettia, Wild plant response rating (wild poinsettia; 31 g ai/ha): 0 | Plant response rating, Poinsettia, Wild (wild poinsettia; [1]): 0 | Plant response rating, Nutsedge, Yellow (yellow nutsedge; [3]): 0 | Nutsedge, Yellow plant response rating (yellow nutsedge; 16 g ai/ha): 0 | Nutsedge, Yellow plant response rating (yellow nutsedge; 31 g ai/ha): 0 | Nutsedge, Yellow plant response rating (yellow nutsedge; 62 g ai/ha): 0 | Plant response rating, Nutsedge, Yellow (yellow nutsedge; [1]): 0 | Plant response rating, Soybean (soybean; [3]): 0 | Soybean plant response rating (soybean; 16 g ai/ha): 0 | Soybean plant response rating (soybean; 31 g ai/ha): 0 | Soybean plant response rating (soybean; 62 g ai/ha): 40 | Plant response rating, Soybean (soybean; [1]): 50 | Plant response rating, Dayflower, VA (dayflower; [3]): 0 | Dayflower, VA plant response rating (dayflower; 16 g ai/ha): 0 | Dayflower, VA plant response rating (dayflower; 31 g ai/ha): 0 | Dayflower, VA plant response rating (dayflower; 62 g ai/ha): 20 | Plant response rating, Dayflower, VA (dayflower; [1]): 65
